The numbers were not newly measured in paper PMC6317935 (ChemistryOpen, 2018), which cites them from elsewhere.

In general, EC50 refers to the concentration giving half of the maximal effect.

The subject of this data set is FXR. The settings on record: read-out: EC50 (FXR agonist).
Take `CC[C@H]1[C@@H](O)[C@@H]2[C@H](CC[C@]3(C)[C@@H]([C@H](C)CCC(=O)O)CC[C@@H]23)[C@@]2(C)CC[C@@H](O)C[C@@H]12` [Compound 1, obeticholic acid]: the EC50 is […].

Consider `CC(C)OC(=O)C1=CN(C(=O)c2ccc(F)c(F)c2)CC(C)(C)c2c1[nH]c1ccccc21` [Compound 4, WAY‐362450], for which the EC50 was 4 nM.

With `COC(=O)/C=C/c1cccc(N(Cc2ccc(-c3ccc(N(C)C)cc3)cc2)C(=O)C2CCCCC2)c1` [Compound 3, Fexaramine], the EC50 was 25 nM.
